For assay [1], the target named is T1, KRAS G12C mutant (Homo sapiens, UniProt P01116, G12C).
T1 construct: 50 μM G12C K-Ras4B (1-169) protein and 1 mM BODIPY® FL GDP; His tag (N, cleaved yes); made in house; host or cells: E. coli BL21 (DE3)
Briefly: Inhibition of SOS1-mediated nucleotide (GDP-GTP) exchange reaction of KRAS G12C mutant, BODIPY FL GDP fluorescence. It counts as biochemical. The note with it: preincubated 25° C. 4 hours with 25 nM KRAS G12C bound with BODIPY FL GDP; SOS1 100 nM, GppNHp 1 μM, 30 minutes. From the text:
(§1) SOS1 protein was expressed in E. coli strain BL21 (DE3) by synthesizing a nucleotide sequence encoding the amino acid sequence represented by GenPept ID NP_005624 as a sequence optimized for E. coli by use of GeneArt Technology (Life Technologies Corp.) such that the protein was N-terminally His-tagged and fused with a TEV protease recognition sequence (ENLYFQG). The expressed His-tagged SOS1 (564-1049) was purified through a Ni column, then cleaved at its tag with N-terminally His-tagged TEV protease, and passed through a Ni column again to recover a flow-through fraction to obtain the protein.
Each compound was studied for its inhibitory effect on the exchange reaction of GDP into GppNHp in BODIPY® FL bound with the KRAS G12C mutant by fluorescence measurement using the G12C K-Ras4B (1-169) protein and the SOS1 protein.
For the preparation of the KRAS G12C mutant bound with BODIPY® FL GDP, first, 50 μM G12C K-Ras4B (1-169) protein and 1 mM BODIPY® FL GDP (Invitrogen Corp., G22360) were incubated for 1 hour in a buffer solution (20 mM Tris-HCl (pH 7.5), 50 mM NaCl, and 1 mM DTT) in ice in the presence of 2.5 mM EDTA. Then, MgCl2 was added thereto at a final concentration of 10 mM, then the mixture was incubated at room temperature for 30 minutes, and then, the protein was passed through a NAP-5 column for removal of free nucleotides and used for compound evaluation.
For the measurement of the inhibitory activity of compounds against nucleotide exchange reaction, first, the compound of the present invention was serially diluted with DMSO. Subsequently, the serially diluted solution of the compound of the present invention in DMSO (final concentration of DMSO: 5%) and the KRAS G12C mutant (25 nM) bound with BODIPY® FL GDP were added into a reaction buffer solution (20 mM Tris-HCl (pH 7.5), 100 mM NaCl, 1 mM MgCl2, 2 mM DTT, and 0.1% Tween 20), and the mixture was preincubated at 25° C. for 4 hours. Then, Son of Sevenless Homolog 1 (SOS1, amino acid region: 564-1049) and GppNHp (GMPPNP, Jena Bioscience GmbH, NU-401-50) were added thereto at final concentrations of 100 nM and 1 μM, respectively, and the mixture was reacted for 30 minutes. The change in fluorescence intensity of BODIPY® FL (excitation wavelength: 485 nm, fluorescence wavelength: 520 nm) between immediately after the start of reaction and after 30 minutes from the start of reaction was standardized, and then, the compound concentration at which 50% inhibition was achieved was calculated as IC50 (nM) when the signal value for only DMSO was defined as 0% inhibition and the signal value for no addition of GppNHp was defined as 100% inhibition.

In assay [2] the target is T2, G12C K-Ras4B (1-169) (Homo sapiens, UniProt P01116, G12C).
T2 construct: G12C K-Ras4B (1-169) protein, which was a KRAS G12C mutant; His tag (N, cleaved yes); made in house; host or cells: E. coli BL21 (DE3)
In words: Binding to KRAS G12C mutant, compound binding rate by LC-MS. Particulars: final compound concentration 2 μM, 1 μM protein, 2 hours at 25° C.
From the text: as §1, with “K-Ras4B (1-169)” for “SOS1”, “NP_004976” for “NP_005624”, “K-Ras4B (1-169)” for “SOS1 (564-1049)”, “fraction, which was further purified by anion-exchange chromatography” for “fraction”, “protein. G12C K-Ras4B (1-169) protein, which was a KRAS G12C mutant, was obtained in the same way as in the K-Ras4B(1-169) protein except that glycine at position 12 of the amino acid sequence represented by GenPept ID NP_004976 was mutated to cysteine.” for “protein.”
The K-Ras4B (1-169) protein and the G12C K-Ras4B (1-169) protein were mixed and diluted with a buffer solution (1×TBS and 0.1 mM TCEP) to prepare a protein solution containing 1 μM each of the proteins. Each test compound was dissolved at 10 mM in DMSO and further diluted 10-fold with DMSO to make a 1 mM solution. Then, the solution was diluted 5-fold with DMSO to make a 200 μM solution. The 200 μM solution was further diluted 5-fold to make a […] solution. 1 μL of the 40 μM test compound was added to 19 μL of the 1 μM protein solution such that the final compound concentration was 2 μM. The mixture was stored for 2 hours in an incubator of 25° C., and the reaction was terminated by the addition of 80 μL of a 1×TBS solution containing 0.2% formic acid, followed by LC-MS measurement.
The LC-MS measurement was performed by using Xevo G2-S Q-Tof manufactured by Waters Corp., performing reverse-phase chromatography with a desalting column, and obtaining mass spectra of positive ions by electrospray. For the mass spectra, spectra of polyvalent ions were collectively converted to molecular weights by the MaxEnt technique using OpenLynx software, and then, a compound binding rate was obtained from the ratio of […].
The binding rates of test compounds having a final compound concentration of 2 μM for G12C K-Ras4B (1-169) are shown in the table below. The binding rate for G12C K-Ras4B (1-169) is rated “A” for 80% or more, “B” for 60% or more and less than 80%, “C” for 40% or more and less than 60%, “D” for 20% or more and less than 40%, and “E” for less than 20%.

These results are taken from US12479834B2, “Phenol compound or salt thereof” (TAIHO PHARMACEUTICAL CO., LTD., priority 2019, dated 2025).

Structures are written as SMILES.

By IC50 is commonly meant the midpoint of a concentration-inhibition curve. A high value points to weaker potency. Compound `C=CC(=O)N1CC(NC(=O)c2cccc(CNc3cc(C(C)(C)C)c(Cl)cc3O)c2)C1` [Example 2, N-(1-Acryloylazetidin-3-yl)-3-(((5-(tert-butyl)-4-chloro-2-hydroxyphenyl)amino)methyl)benzamide] had a concentration for half-maximal inhibition (IC50) in assay [1] of 815 nM. Further, the “binding rate for G12C K-Ras4B (1-169)” value in assay [2] was “B (60% or more and less than 80%)”.

For the compound `C=CC(=O)N1CC(NC(=O)c2ccc(CNc3cc(C(C)(C)C)c(Cl)cc3O)cc2)C1` [Example 3, N-(1-Acryloylazetidin-3-yl)-4-(((5-(tert-butyl)-4-chloro-2-hydroxyphenyl)amino)methyl)benzamide], in assay [1], the IC50 turned out to be 753 nM. Also, the “binding rate for G12C K-Ras4B (1-169)” value in assay [2] is “B (60% or more and less than 80%)”.

`C=CC(=O)N1CC[C@@H](N(C)C(=O)c2ccc(CNc3cc(C(C)(C)C)c(Cl)cc3O)o2)C1` [Example 6, (R)—N-(1-Acryloylpyrrolidin-3-yl)-5-(((5-(tert-butyl)-4-chloro-2-hydroxyphenyl)amino)methyl)-N-methylfuran-2-carboxamide] returned an IC50 in assay [1] of 164 nM. Moreover, the “binding rate for G12C K-Ras4B (1-169)” value in assay [2] was “D (20% or more and less than 40%)”.

The compound `C=CC(=O)N1CC(NC(=O)c2ccc(CNc3cc(C(C)(C)C)c(Cl)cc3O)s2)C1` [Example 7, N-(1-Acryloylazetidin-3-yl)-5-(((5-(tert-butyl)-4-chloro-2-hydroxyphenyl)amino)methyl)thiophene-2-carboxamide] showed a half-maximal inhibitory concentration (IC50) in assay [1] of 1510 nM. Also, the “binding rate for G12C K-Ras4B (1-169)” value in assay [2] is listed as “A (80% or more)”.

Turning to `C=CC(=O)N1CC(NC(=O)c2csc(CNc3cc(C(C)(C)C)c(Cl)cc3O)n2)C1` [Example 8, N-(1-Acryloylazetidin-3-yl)-2-(((5-(tert-butyl)-4-chloro-2-hydroxyphenyl)amino)methyl)thiazole-4-carboxamide], the IC50 in assay [1] worked out at 58 nM. Further, the “binding rate for G12C K-Ras4B (1-169)” value in assay [2] is “A (80% or more)”.

`C=CC(=O)N1CC(NC(=O)c2cnc(CNc3cc(C(C)(C)C)c(Cl)cc3O)s2)C1` [Example 9, N-(1-Acryloylazetidin-3-yl)-2-(((5-(tert-butyl)-4-chloro-2-hydroxyphenyl)amino)methyl)thiazole-5-carboxamide] had an IC50 in assay [1] of 39 nM. In addition, the “binding rate for G12C K-Ras4B (1-169)” value in assay [2] is given as “A (80% or more)”.

In turn, `C=CC(=O)N1CC(NC(=O)c2nc(CNc3cc(C(C)(C)C)c(Cl)cc3O)cs2)C1` [Example 10, N-(1-Acryloylazetidin-3-yl)-4-(((5-(tert-butyl)-4-chloro-2-hydroxyphenyl)amino)methyl)thiazole-2-carboxamide] displayed an IC50 in assay [1] of 67 nM. In addition, in assay [2], the “binding rate for G12C K-Ras4B (1-169)” value is given as “A (80% or more)”.

Regarding `C=CC(=O)N1CC(NC(=O)c2cnc(CNc3cc(C(C)(C)C)c(Cl)cc3O)o2)C1` [Example 11, N-(1-Acryloylazetidin-3-yl)-2-(((5-(tert-butyl)-4-chloro-2-hydroxyphenyl)amino)methyl)oxazole-5-carboxamide], in assay [1], the IC50 was found to be 123 nM. In assay [2], the “binding rate for G12C K-Ras4B (1-169)” value was “B (60% or more and less than 80%)”.

In assay [1], `C=CC(=O)N1CC(NC(=O)c2ncc(CNc3cc(C(C)(C)C)c(Cl)cc3O)o2)C1` [Example 12, N-(1-Acryloylazetidin-3-yl)-5-(((5-(tert-butyl)-4-chloro-2-hydroxyphenyl)amino)methyl)oxazole-2-carboxamide] returned an IC50 of 954 nM. Also, the “binding rate for G12C K-Ras4B (1-169)” value in assay [2] is “C (40% or more and less than 60%)”.

Take `C=CC(=O)N1CC(NC(=O)c2coc(CNc3cc(C(C)(C)C)c(Cl)cc3O)n2)C1` [Example 13, N-(1-Acryloylazetidin-3-yl)-2-(((5-(tert-butyl)-4-chloro-2-hydroxyphenyl)amino)methyl)oxazole-4-carboxamide]: in assay [1], the midpoint of inhibition, the IC50, lay at 735 nM. In addition, in assay [2], the “binding rate for G12C K-Ras4B (1-169)” value is “A (80% or more)”.

The compound `C=CC(=O)N1CC(NC(=O)c2nc(CNc3cc(C(C)(C)C)c(Cl)cc3O)co2)C1` [Example 14, N-(1-Acryloylazetidin-3-yl)-4-(((5-(tert-butyl)-4-chloro-2-hydroxyphenyl)amino)methyl)oxazole-2-carboxamide] came in with an IC50 in assay [1] of 420 nM. Also, the “binding rate for G12C K-Ras4B (1-169)” value in assay [2] is recorded as “A (80% or more)”.

`C=CC(=O)N1CC(NC(=O)c2ccnc(CNc3cc(C(C)(C)C)c(Cl)cc3O)c2)C1` [Example 15, N-(1-Acryloylazetidin-3-yl)-2-(((5-(tert-butyl)-4-chloro-2-hydroxyphenyl)amino)methyl)isonicotinamide]: the half-inhibitory concentration (IC50) in assay [1] was 825 nM. Besides, the “binding rate for G12C K-Ras4B (1-169)” value in assay [2] is “D (20% or more and less than 40%)”.

Regarding `C=CC(=O)N1CC(NC(=O)c2cc(CNc3cc(C(C)(C)C)c(Cl)cc3O)ccn2)C1` [Example 16, N-(1-Acryloylazetidin-3-yl)-4-(((5-(tert-butyl)-4-chloro-2-hydroxyphenyl)amino)methyl)picolinamide], half-maximal inhibition in assay [1] (IC50) required 3010 nM. Further, the “binding rate for G12C K-Ras4B (1-169)” value in assay [2] is “A (80% or more)”.

The compound `C=CC(=O)N1CC(NC(=O)c2cncc(CNc3cc(C(C)(C)C)c(Cl)cc3O)c2)C1` [Example 17, N-(1-Acryloylazetidin-3-yl)-5-(((5-(tert-butyl)-4-chloro-2-hydroxyphenyl)amino)methyl)nicotinamide] displayed an IC50 in assay [1] of 2070 nM. Also, in assay [2], the “binding rate for G12C K-Ras4B (1-169)” value was “D (20% or more and less than 40%)”.

The compound `C=CC(=O)N1CC(NC(=O)c2nc(CNc3cc(C(C)(C)C)c(Cl)cc3O)cn2C)C1` [Example 19, N-(1-Acryloylazetidin-3-yl)-4-(((5-(tert-butyl)-4-chloro-2-hydroxyphenyl)amino)methyl)-1-methyl-1H-imidazole-2-carboxamide] came in with an IC50 in assay [1] of 233 nM. The “binding rate for G12C K-Ras4B (1-169)” value in assay [2] is listed as “A (80% or more)”.
